Entries after “also recorded” stand apart in the source; their conditions may differ.
Experiments:
[1] = tested on: human retinal endothelial cells; test: GFP mRNA cargo uptake with CTR peptide in retinal endothelial cells; type: cell-based; conditions: 5 μg mRNA mixed with peptide, 24 hours
Experimental: To evaluate this, HMRECs were cultured in a 24 well plate until 80% confluency complete endothelial growth media 2 (EGM-2, Lonza, Switzerland). For the treatments, 5 μg of mRNA were added to all the formulations. We prepared mRNA/peptide conjugates by mixing each amount of peptide ([…]) (SEQ ID NO:59) and mRNA prior to dilution in EGM-2. HMRECs were cultured with treatment media for 24 hours followed by fluorescence measurements in a microplate reader Synergy H1 (Biotek, VT) upon exciting at 482 nm and recording emission at 520 nm.

[2] = Isothermal titration calorimetry (ITC) of CTR-RELN with heparin; type: binding; conditions: titrated with 5 μM heparin, vs WT
[3] = Heparin-sepharose affinity column chromatography, NaCl step gradient; type: binding
Experimental: We tested changes in binding to heparin of RELN variants chromatographically using an optimized version of a protocol previously published by our laboratory (1). Briefly, after equilibration of the heparin column (BioVision 6554-1) at R.T., columns were washed with five volumes of degassed 20 mM TRIS-HCl buffer (pH 7.5). Recombinant C-terminus RELN peptides were produced and purified by Innovagen (Sweden): (WT) […](SEQ ID NO:56), and (H3447R) […](SEQ ID NO:53). One mL of 50 μg/mL peptide (H3447 or WT, and H3447R) was recycled through the column five times and the last flow through collected for further analysis. The column was washed five times with the same buffer and the protein eluted using a 0.05 M step gradient of NaCl in 20 mM Tris-HCl (0-1M, one mL per fraction). To ensure the complete release of the protein, the column was washed with five M NaCl 20 mM Tris-HCl. Three independent experiments were conducted for C-terminus RELN WT and H3447R. All eluted fractions were analyzed spectroscopically by reading the absorbance at 280 nm using Nanodrop 2000 Spectrophotometer. Blank corrected fractions were subsequently analyzed using GraphPad Prism 8.
To assess Reelin-heparin binding affinity, Reelin variants were run on a heparin column with steps of 0.05M in a range of 0.05-1M NaCl over 20 1 mL column volumes in 20 mM Tris HCl, as described in Arboleda et. al 2019 (2). Sample fractions were eluted at an increasing NaCl step size to determine the ionic strength needed to disrupt the binding between Reelin and heparin. Therefore, the stronger the interaction, the higher concentration of salt would be needed to disrupt the bond.

[4] = biological target: T1, APOER2 (Homo sapiens, UniProt Q14114); test: ELISA cell-free binding of RELN variants to ApoEr2
T1 construct: purchased OnGene (so in the source)
T1 sequence (Q14114 33-963): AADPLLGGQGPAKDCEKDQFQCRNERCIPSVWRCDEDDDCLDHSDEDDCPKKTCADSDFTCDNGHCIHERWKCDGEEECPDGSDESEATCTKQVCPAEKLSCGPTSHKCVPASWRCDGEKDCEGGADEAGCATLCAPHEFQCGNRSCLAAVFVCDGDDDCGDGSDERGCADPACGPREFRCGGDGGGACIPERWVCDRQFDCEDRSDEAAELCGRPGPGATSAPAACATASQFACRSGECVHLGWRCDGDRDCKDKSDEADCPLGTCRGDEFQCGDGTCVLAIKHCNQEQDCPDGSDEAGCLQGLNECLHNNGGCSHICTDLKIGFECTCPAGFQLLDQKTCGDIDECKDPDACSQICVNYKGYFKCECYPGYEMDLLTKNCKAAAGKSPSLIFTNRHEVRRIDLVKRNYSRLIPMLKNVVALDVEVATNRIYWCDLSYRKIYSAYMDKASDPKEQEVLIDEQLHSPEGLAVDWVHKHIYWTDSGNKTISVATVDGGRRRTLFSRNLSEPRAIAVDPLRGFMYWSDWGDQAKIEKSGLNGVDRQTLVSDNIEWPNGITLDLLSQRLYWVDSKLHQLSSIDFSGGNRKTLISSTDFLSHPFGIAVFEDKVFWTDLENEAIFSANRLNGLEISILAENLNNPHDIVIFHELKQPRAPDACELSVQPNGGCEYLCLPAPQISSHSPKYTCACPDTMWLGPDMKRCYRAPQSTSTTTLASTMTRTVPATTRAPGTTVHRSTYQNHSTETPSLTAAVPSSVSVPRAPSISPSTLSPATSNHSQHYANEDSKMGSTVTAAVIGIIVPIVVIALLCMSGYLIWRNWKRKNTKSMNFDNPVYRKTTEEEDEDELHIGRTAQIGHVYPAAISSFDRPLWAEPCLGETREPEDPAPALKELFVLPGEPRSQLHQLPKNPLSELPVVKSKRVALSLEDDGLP
Experimental: (§1) Enzyme-linked immunosorbent assay (ELISA) was used to quantify changes in binding of RELN variants (media-derived full-length or CTR-RELN) to either VLDLr or ApoEr2 following an optimized version of a previously published protocol (6). Briefly, ELISA strips (DY008, R&D Systems) were coated with one ng/μL (100 μL/well) of VLDLr (8444-VL, R&D) or ApoEr2 (TP320903, OnGene) receptors diluted in 25 mM Tris HCl, 140 mM NaCl, […], two mM CaCl2), pH 7.4 (TBS-C buffer). After 18 h at four ° C. incubation, plates were blocked one h with three % BSA (22070008-6, Bioworld), 0.05% Tween-20 (Sigma Aldrich) TBS-C buffer. We assessed binding via incubation with 100 μL/well of serial dilutions of recombinant RELN protein (Ser1221-Gln2666, 8546-MR-050, R&D) or RELN variants in TBS-C buffer for one hour at room temperature. For detection, we used goat anti-mouse RELN primary antibody (LS-C793521-100, LS-Bio, 1:2,000, 100 μL/well) as primary antibody for one h at R.T. and (1:10,000; 100 μL/well, donkey anti-goat IgG H&L, HRP, ab6885, Abcam) as secondary antibody for 30 min. at R.T. Between each of the previous steps, plates were washed four times with TBS-C buffer (200 μL/well). Plates were washed three times prior to initiating the colorimetric reaction (DY008, R&D Systems). Stop solution (50 μL/well, DY008, R&D Systems) was added upon five min. incubation and the absorbance of the samples was measured at 450 nm using the Synergy 2 microplate reader (BioTek Instruments). Processing and analysis of the data was done using Gen5 1.11 software and GraphPad Prism, respectively.

[5] = biological target: T2, Aβ42 (Homo sapiens, UniProt P05067); test: Thioflavin T (ThT) Aβ aggregation assay; type: biochemical; conditions: Aβ42 55 μM, 10 μM peptide, vs Aβ alone
T2 construct: SensoLyte ThT O-Amyloid (1-42) Aggregation kit
T2 sequence (P05067 672-713 limits assumed): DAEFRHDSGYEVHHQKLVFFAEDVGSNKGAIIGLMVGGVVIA
Experimental: Therefore, the ThT assay can be used to quantify AB aggregation using previously developed methods (40).
We incubated CTR-RELN with Aβ and monitored aggregation using a ThioflavinT fluorescence assay normalized to the maximum ThT emission of Aβ only. We also assayed Aβ in the presence of morin, a known inhibitor (41), as a […]. Long and short WT and H3447R RELN CTR peptides were included to better understand the potential role of the H3447R mutation in amyloid pathology (FIGS. 14 and 15. Negative controls included long and short RELN CTR peptides with neutrally charged AAs (histidines) in place of basic AAs in the alpha- and beta-GAG binding sites.
A Thioflavin T (ThT) assay was also performed using synthetic Reelin peptides to assess the differential effects of these proteins on Aβ42 aggregation in vitro using Thioflavin T (SensoLyte ThT O-Amyloid (1-42) Aggregation kit, catalog no. ΔS-72214). Aβ42 was added to a final concentration of 55 μM in solutions of 10 μM of Reelin peptide variants in a transparent, no-binding 96-well plate. Samples were then mixed with 2 mM Thioflavin T dye and fluorescence was read at excitation wavelength/emission wavelength (Ex/Em)=440/484 nm at intermittent time intervals over 2 h. The plate was kept at 37° C. with 15 s shaking between reads. […] In general, it appears that the RELN Cterm domain is highly unstructured. […] If the mini-RELN includes the C-term domain only without a receptor binding domain then the protection will not involve signaling, but will still involve direct interactions with tau. If the mini-RELN includes the C-term domain and the receptor binding domain, it will have at least two protective mechanisms, namely RELN signaling and direct interactions with tau.

[6] = biological target: T3, VLDLr (Homo sapiens, UniProt P98155); test: ELISA cell-free binding of RELN variants to VLDLr
T3 construct: purchased R&D 8444-VL
Experimental: as §1

[7] = tested on: pDAB1 (Tyr232); test: HRECs treated 5 minutes with HEK 293T-derived mini-RELN media, pDAB1 western blot; type: cell-based, human; conditions: HEK 293T-derived media 1:1, 1:4, 1:14, 5 minutes
Experimental: The effect of in vitro treatment with RELN or miniRELN protein was also evaluated. HRECs were cultured in EBM-2 media enriched with EGM-2 Single Quots (Lonza) at 37° C. and 5% CO2 and experimentally tested at passage 7. 24 h prior experiment, cells were plated on a 6-well plate at 500,000 cells/mL. Two hours before the experiment, the cells were washed with PBS to remove residual growth media and then incubated with a starving media including EBM-2, 1% GlutaMax+0,2% Normicin. Treatments was conducted using media derived from HEK 293T cells transiently transfected for 24 h with different mini-RELN constructs in the presence of Lipofectamine 2000. […] Total protein levels were quantified via BCA assay. […] We detected pDAB1 (Tyr232; 1:1000, rabbit, #3325 Cell signaling), and Beta actin (1:5000, mouse, #66009-1-Ig, Proteintech. Antibodies were diluted using Intercept® (TBS) Blocking Buffer and incubated overnight at 4C under gentle shaking. Prior secondary antibody incubation, membranes were washes 2 times using TBS-T for 10 minutes. As secondary antibodies we used IR Dye 800n CW Goat-anti-Rabbit (925-32211, Licor) and IR Dye 680 CW Goat-anti-Mouse (925-68070, Licor) both diluted 1:10000 in blocking buffer for 1 h at room temperature under gentle shaking. Membranes were washed three times with TBS-T prior IR detection using Odyssey imager. […]

RKQNYMMNFSRQHGLRHFYNRRRR [WT short]
GFP expression from mRNA cargo [1]: increase in expression

RKQNYMMNFSRQHGLRRFYNRRRR [H3447R short]
thermodynamics of heparin interaction [2]: more negative Gibbs free energy

RKQNYMMNFSRQHGLRHFYNRRRRSLRRYP [CTR-RELN WT]
NaCl concentration of peak eluted fraction from heparin column ([3]; 0.05 M NaCl step gradient in 20 mM Tris HCl, UV 280 nm): 0.55 M NaCl | binding to and release from heparin column ([3]; affinity chromatography, NaCl gradient): bound to heparin | binding to APOER2 [4]: unable to bind directly | Aβ aggregation (ThT fluorescence) ([5]; listed as Cterm domain of RELN): reduced amyloid aggregation | Aβ aggregation (ThT fluorescence) ([5]; listed as RELN CTR): decreased amyloid aggregation; also recorded: significantly reduced amyloid aggregation; also recorded: reduces Aβ aggregation | binding to VLDLr [6]: unable to bind directly

IL2signalpeptide-6XHistag(SEQ ID NO: 62)-hReelin(AALeu1220-Ile2660) C-term-REELIN H3447R [225SU]
pDAB1 / Dab1 signaling activation [7]: efficacy
